One may read the EC50 as the midpoint of the concentration-response curve. Higher therefore signals a need for much substance.

For the test, the target named is Human immunodeficiency virus type 1 reverse transcriptase (Human immunodeficiency virus 1, UniProt Q72547). Briefly: Effective concentration against HIV-1 reverse transcriptase. In kind it is functional.
In turn, `C=CCN1Cc2c(Cl)ccc3[nH]c(=S)n(c23)C[C@@H]1C` yielded a 50% effective concentration (EC50) of 4.6 nM.

In the case of `C=CCN1[C@H](C)c2cccc3[nH]c(=S)n(c23)C[C@@H]1C`, the EC50 turned out to be 790 nM.

As for `C=CCN1[C@@H](C)Cn2c(=S)[nH]c3cccc(c32)[C@@H]1C`, the half-maximal effective concentration (EC50) is 39 nM.

Take `C=CCN1Cc2c(C)ccc3[nH]c(=S)n(c23)C[C@@H]1C`: the EC50 was determined as 14 nM.

In turn, `CC(C)=CCN1Cc2cccc3[nH]c(=S)n(c23)C[C@@H]1C` gave an EC50 of 44 nM.

`CC(C)=CCN1Cc2cc(Cl)cc3[nH]c(=S)n(c23)C[C@@H]1C`: the 50% effective concentration (EC50) came to 33 nM.

In turn, `CC(C)=CCN1Cc2c(Cl)ccc3[nH]c(=S)n(c23)C[C@@H]1C` [TIVIRAPINE] had an EC50 of 5.1 nM.

Consider `C=CCN1Cc2cccc3[nH]c(=O)n(c23)C[C@@H]1C`, for which the concentration giving a half-maximal response (EC50) amounted to 4200 nM.

Values taken from ChEMBL document CHEMBL1132191, “Prediction of the binding free energies of new TIBO-like HIV-1 reverse transcriptase inhibitors using a combination of PROFEC, PB/SA, CMC/MD, and free energy calculations” (J Med Chem, 1999).
